In the experiment the test system is NCI-H322 lung cancer cells. The experiment can be described thus: NK cell CD107a / IFNγ flow cytometry against NCI-H322. It is filed as cell-based, human. Particulars: normal donor PBMCs, vs controls. The source says: FIGS. 24A-24F illustrate that B7-H3 TriKE enhances NK cell function against lung tumor targets. FIG. 24A is a graph showing pooled analysis of proportion of NK cells from healthy donors expressing CD107a+ against A549(N=6) tumor targets. FIG. 24B is a graph showing pooled analysis of proportion of NK cells from healthy donors expressing IFNγ against A549(N=6) tumor targets. FIG. 24C is a graph showing pooled analysis of proportion of NK cells from healthy donors expressing CD107a+ against NCI-H322 (N=5) tumor targets. FIG. 24D is a graph showing pooled analysis of proportion of NK cells from healthy donors expressing IFNγ against NCI-H322 (N=5) tumor targets. FIG. 24E is a graph showing pooled proportion of NK cells from healthy donors (black bars) or lung cancer patients (white bars) expressing CD107a+ against NCI-H460 (N=7). FIG. 24F is a graph showing pooled proportion of NK cells from healthy donors (black bars) or lung cancer patients (white bars) expressing IFNγ against NCI-H460 (N=7). ** p<0.01, *** p<0.001, and **** p<0.0001.
ADCC was measured in a flow cytometry assay by evaluating degranulation via CD107a (lysosomal-associated membrane protein LAMP-1) and intracellular IFNγ production. […] Samples were washed and evaluated in an LSRII flow cytometer (BD Biosciences, San Jose, CA, USA). […]
Background: A flow cytometer gives signals particle by particle.

For the substance “cam1615B7-H3: second-generation TriKE: humanized camelid anti-CD16 VHH, human wild-type IL-15, anti-B7-H3 mAb 376.96 scFv; SEQ ID NO:1”, the “NK cell activation against NCI-H322” value is “significantly and robustly improved NK cell activation”.

These data come from patent US20250145715A1, “B7-H3 TARGETING FUSION PROTEINS AND METHODS OF USE THEREOF” (GT Biopharma, Inc., priority 2021, published 2025).
